Reference: ChEMBL document CHEMBL1158150, “Inhibition of reverse transcriptase activity by benzophenanthridine alkaloids” (J Nat Prod, 1979)
The source made the active and inactive calls. The calls are words filed in the database; no cut-off is given here.

Tests used:
[1] = tested on: JLS-V9; experiment: Inhibition of reverse transcriptase from Rauscher murine leukemia virus propagated in JLS-V9 cells at 5 to 10 ug/ml; assay type: cell-based
[2] = tested on: Avian myeloblastosis virus; experiment: Inhibition of AMV reverse transcriptase assessed as [3H]TTP incorporation at 5 ug by toluene-based scintillation fluid counting in presence of template primer
[3] = tested on: Avian myeloblastosis virus; experiment: Inhibition of AMV reverse transcriptase assessed as [3H]TTP incorporation at 5 ug by toluene-based scintillation fluid counting in presence of 2 to 20 ug poly rA.oligo dT template primer
[4] = tested on: Avian myeloblastosis virus; experiment: Inhibition of AMV reverse transcriptase assessed as [3H]TTP incorporation by toluene-based scintillation fluid counting in presence of 0.10 umole MnCl2
[5] = tested on: Avian myeloblastosis virus; experiment: Inhibition of AMV reverse transcriptase assessed as [3H]dGTP incorporation at 5 ug by toluene-based scintillation fluid counting in presence of poly rC.oligo dG template primer
[6] = tested on: Avian myeloblastosis virus; experiment: Inhibition of AMV reverse transcriptase at 40 to 50 ug/ml
[7] = tested on: Avian myeloblastosis virus; experiment: Inhibition of AMV reverse transcriptase assessed as [3H]TTP incorporation by toluene-based scintillation fluid counting in presence of 0.50 umole MnCl2
[8] = tested on: JLS-V9; experiment: Inhibition of reverse transcriptase from Rauscher murine leukemia virus propagated in JLS-V9 cells at 40 to 60 ug/ml; assay type: cell-based
[9] = tested on: Avian myeloblastosis virus; experiment: Inhibition of AMV reverse transcriptase assessed as [3H]TMP incorporation by toluene-based scintillation fluid counting
[10] = tested on: Avian myeloblastosis virus; experiment: Inhibition of AMV reverse transcriptase at 30 to 40 ug/ml
[11] = tested on: JLS-V9; experiment: Inhibition of reverse transcriptase from Rauscher murine leukemia virus propagated in JLS-V9 cells at 6 to 18 ug/ml; assay type: cell-based
[12] = tested on: JLS-V9; experiment: Inhibition of reverse transcriptase from MuLV propagated in JLS-V9 cells at 30 to 40 ug/ml; assay type: cell-based; settings: Rauscher murine leukemia virus
[13] = tested on: Avian myeloblastosis virus; experiment: Inhibition of AMV reverse transcriptase at 6 to 12 ug/ml
[14] = tested on: Avian myeloblastosis virus; experiment: Inhibition of AMV reverse transcriptase assessed as [3H]TTP incorporation at 5 ug by toluene-based scintillation fluid counting in presence of poly rA.oligo dT template primer
[15] = tested on: Avian myeloblastosis virus; experiment: Inhibition of AMV reverse transcriptase at 45 to 50 ug/ml
[16] = tested on: Avian myeloblastosis virus; experiment: Inhibition of AMV reverse transcriptase assessed as [3H]TTP incorporation at 5 ug by toluene-based scintillation fluid counting in presence of 70S RNA template primer
[17] = tested on: Avian myeloblastosis virus; experiment: Inhibition of AMV reverse transcriptase assessed as [3H]TTP incorporation at 5 ug by toluene-based scintillation fluid counting in presence of poly dA.oligo dT template primer
[18] = tested on: Avian myeloblastosis virus; experiment: Inhibition of AMV reverse transcriptase assessed as [3H]TTP incorporation at 5 ug by toluene-based scintillation fluid counting in presence of activated DNA template primer
[19] = tested on: Avian myeloblastosis virus; experiment: Inhibition of AMV reverse transcriptase at 12 to 18 ug/ml
[20] = tested on: Avian myeloblastosis virus; experiment: Inhibition of AMV reverse transcriptase at 50 to 60 ug/ml

SMILES: COc1cc2c[n+](C)c3c4cc5c(cc4ccc3c2cc1OC)OCO5
- Activity [1]: Active
- Activity [2]: Active
- Activity [3]: inactive
- Activity [4]: Active
- Activity [5]: Active
- inhibition [6]: 50%
- Activity [7]: Active
- Activity [8]: Active
- Activity [9]: Active

SMILES: COc1cc2c(ccc3c4cc(OC)c(OC)cc4c[n+](C)c23)cc1O
- Activity [1]: Active
- Activity [2]: Active
- Activity [3]: inactive
- Activity [4]: Active
- Activity [5]: Active
- inhibition [10]: > 90%
- Activity [7]: Active
- Activity [11]: Active
- inhibition [12]: > 90%
- Activity [9]: Active
- inhibition [13]: 50%

SMILES: COc1cc2ccc3c4cc5c(cc4c(OC)[n+](C)c3c2cc1OC)OCO5
- Activity [1]: Active
- Activity [3]: inactive
- inhibition [14]: 95%
- Activity [4]: Active
- inhibition [5]: 2%
- inhibition [15]: 50%
- inhibition [16]: 92%
- Activity [7]: Active
- Activity [8]: Active
- inhibition [17]: 94%
- inhibition [18]: 93%

SMILES: COc1cc2ccc3c4cc(OC)c(OC)cc4c(OC)[n+](C)c3c2cc1OC
- Activity [1]: Active
- Activity [3]: inactive
- inhibition [14]: 98%
- Activity [4]: Active
- inhibition [5]: 3%
- inhibition [16]: 95%
- inhibition [10]: > 90%
- Activity [7]: Active
- inhibition [19]: 50%
- Activity [11]: Active
- inhibition [17]: 97%
- inhibition [12]: > 90%
- inhibition [18]: 96%

SMILES: COc1cc2c(cc1OC)C(OC)N(C)c1c-2ccc2cc3c(cc12)OCO3.O=C(O)Br (stereo not given)
- Activity [1]: Active
- Activity [3]: inactive
- inhibition [14]: 94%
- Activity [4]: Active
- inhibition [5]: 2%
- inhibition [20]: 50%
- inhibition [16]: 91%
- Activity [7]: Active
- Activity [8]: Active
- inhibition [17]: 93%
- inhibition [18]: 92%
